By Kd is commonly meant the constant that tells how readily two partners part at equilibrium.

Assay [1] has as its system FR+ KB cells. The assay is described as follows: 51Chromium release cytotoxicity assay of anti-FITC CAR-expressing T cells against KB cells. The conditions noted are these: 70 nM conjugate, effector:target 20:1, 4-10 hours. Type of assay: cell-based, human.
In assay [2] the test system is FR+ L1210A cells. In words: 51Chromium release cytotoxicity assay of anti-FITC CAR-expressing T cells against L1210A cells. Type of assay: cell-based, mouse. The conditions noted are these: 70 nM conjugate, effector:target 20:1, 4-10 hours. Here is the method: In order to explore whether CAR-expressing T cells can kill cancer cells, ^51Chromium release assays were conducted. In this assay, cancer cells are labeled with ^51Cr. When cancer cells are lysed, ^51Cr would be released from cancer cells to supernatant. By measuring ^51Cr in supernatant, the number of cancer cells killed can be determined.
First, target cancer cells L1210A were incubated in 50 μL growth medium containing 50 μCi ^51Chromium to get labeled. After washing with PBS×3, L1210A cells were resuspended and incubated at 37° C. for 1 hour in the growth medium containing 70 nM FITC-Folate conjugate or FITC-(PEG)12-Folate conjugate. After washing away excess FITC conjugates, 5×10^3 target cancer cells were added in each well of 96-well plates. […] After incubation for 4-10 hours, 20 μL aliquots of cell-free supernatant were harvested and ^51Cr in the supernatants was measured with a scintillation counter or a γ-counter.
Percent specific cytolysis was calculated using following formula: % cytolysis=(Experimental ^51Cr release−control ^51Cr release)/(Maximum ^51Cr release−control ^51Cr release)×100
Control wells contained only target cancer cells, effector T cells were never added in these wells. Maximum ^51Cr release was determined by measuring ^51Cr release from labeled target cells treated with 2.5% SDS to lyse all cells.

Assay [3] concerns folate receptor (FR) on L1210A cells. In words: Binding of FITC-Folate conjugates to FR positive L1210A cancer cells, fluorescence/confocal microscopy. Set-up: species or system mouse. As for the experimental part:
(§1) The ability of the FITC-Folate and FITC-(PEG)12-Folate conjugates to bind folate receptor (FR) positive cancer cells was next investigated. FR positive cells lines L1210A (Mouse lymphocytic leukemia) and KB (Mouth epidermal carcinoma), which are FR positive cell lines, were used to test the binding affinity of the FITC-Folate conjugates. Briefly, 3-4×10^4 cancer cells were prepared to perform binding affinity assays with FITC-Folate and FITC-(PEG)12-Folate conjugates. With two different concentrations (e.g. 20 nM, 70 nM), the two FITC-Folate conjugates were incubated with cancer cells at room temperature for 1 hour. Since both FITC-Folate conjugates have fluorescence, the binding ability of FITC-Folate conjugates to cancer cells can be detected by florescence microscopy. After two washes with 1× phosphate buffered saline (PBS) to remove all unbound compound, the cancer cells were observed by confocal microscope. In order to specify whether FITC-Folate conjugates bind to cancer cells via FR on the surface of cancer cells, Folate Acid was also incubated with cancer cells as a competition compound. […] As shown in competition panel, addition of 50× excess folate acid blocked FITC-Folate binding with these cancer cells, which indicates the specific binding is between folate acid and FR on cell surface.

The target of assay [4] is T1, folate receptor (FR) on KB cells (Homo sapiens, UniProt P15328).
T1 construct: endogenous in cells; host or cells: KB cells
The assay is described as follows: Binding of FITC-Folate conjugates to FR positive KB cancer cells, fluorescence/confocal microscopy. As for the experimental part: as §1

Assay [5] concerns anti-FITC scFv in CAR4-1BBZ on transduced T cells. The assay is described as follows: Binding of FITC-Folate conjugates to CAR4-1BBZ transduced T cells, confocal microscopy. The arrangement: species or system mouse. As for the experimental part:
To examine the ability of the transduced T cells containing CAR4-1BBZ to bind the FITC-Folate conjugates, binding assays with the FITC-Folate conjugate and the FITC-(PEG)12-Folate conjugate were performed. Since the excitation wavelength of FITC in the FITC-Folate conjugates overlapped with copGFP in CAR4-1BB transduced T cells, it was difficult to distinguish between FITC binding and copGFP expression. Therefore, an anti-Folate Acid (FA) monoclonal antibody and a fluorephore (excitation 640 nm)-labeled anti-mouse IgG antibody were utilized.
First, the transduced T cells were incubated with FITC-Folate or FITC-(PEG)12-Folate conjugates at room temperature for 1 hour. After washing with 1×PBS, transduced T cells were incubated with anti-FA monoclonal antibody (1:15 dilution) for 1 hour. After another washing with 1×PBS, transduced T cells further were incubated with fluorophore (excitation 640 nm) labeled anti-mouse IgG antibody (1:50 dilution). Finally, unbound antibodies were washed away and a confocal microscope was used to confirm the FITC-Folate and FITC-(PEG)12-Folate conjugates binding ability. All data was analyzed by Olympus Fluoview software. […] Simultaneously, binding of FITC-Folate and FITC-(PEG)12-Folate conjugates (arrows) were also detected on the CAR4-1BBZ transduced T cells.

Assay [6] concerns PSMA-positive human prostate cancer cells. The conditions noted are these: DUPA-(99m)Tc, ref [8]; cited from earlier work.
Setting [7] is: 20 nM, 70 nM, room temperature 1 hour.

T1 sequence (P15328 25-234): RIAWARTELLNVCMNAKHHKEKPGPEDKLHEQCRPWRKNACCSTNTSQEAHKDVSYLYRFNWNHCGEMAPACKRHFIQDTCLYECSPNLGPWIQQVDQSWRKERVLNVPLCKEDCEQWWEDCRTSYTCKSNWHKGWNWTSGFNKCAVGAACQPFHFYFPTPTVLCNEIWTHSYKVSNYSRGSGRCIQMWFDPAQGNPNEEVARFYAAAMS

As for `Nc1nc2ncc(CNc3ccc(C(=O)N[C@@H](CCC(=O)NCCNC(=S)Nc4ccc(-c5c6ccc(=O)cc-6oc6cc(O)ccc56)c(C(=O)O)c4)C(=O)O)cc3)nc2c(=O)[nH]1` (single isomer, unassigned) [FITC-Folate], the “cancer cell cytolysis by CAR-expressing T cells in the presence of conjugate” value is given as about 18% in assay [1] and about 29% in assay [2]. Besides, the “binding to L1210A cells via FR” value in assay [3] (setting [7]) is listed as “can bind”. In addition, the “binding to L1210A cells in the presence of competitor” value in assay [3] (50× excess folate acid) is given as “blocked”. Also, the “binding to KB cells via FR” value in assay [4] (setting [7]) is recorded as “can bind”. The “binding to KB cells in the presence of competitor” value in assay [4] (50× excess folate acid) is reported as “blocked”. Also, the “cellular localization in KB cells (internalization)” value in assay [4] (FIG. 3A, 3C) is given as “internalized into KB cell cytoplasm”. The “binding to non-transduced T cells” value in assay [5] (non-transduced T cells, same protocol) is given as “not to non-transduced T cells”. Also, the “binding to anti-FITC in CAR4-1BBZ transduced T cells” value in assay [5] (room temperature 1 hour, detected with anti-FA antibody and labeled anti-mouse IgG) was “successfully bound”.
As for `O=C(O)CCC(NC(=O)NC(CCC(=O)O)C(=O)O)C(=O)O` (stereo not shown) [DUPA, 2-[3-(1,3-dicarboxypropyl)ureido] pentanedioic acid], the Kd in assay [6] is 0.014 µM.

These data come from patent US12150981B2, “Chimeric antigen receptor-expressing T cells as anti-cancer therapeutics” (Purdue Research Foundation, priority 2012, dated 2024).
